For series [1], the system named is wheat. The series can be described thus: Safety of 15% and 25% clacyfos microemulsion used in wheat fields, increase in production (B9). The series is classed as in vivo. An excerpt:
The microemulsion of 15% clacyfos (the amount of clacyfos added is 15%, the preparation process is referred to preparation example A3) is in the dosage range of 180 g/hm^2 to 600 g/hm^2. The microemulsion of 25% clacyfos (the addition amount of the clacyfos is 25%, the preparation process is referred to preparation example A7) is in the dosage range of 150 g/hm^2 to 720 g/hm^2. At various testing areas, clacyfos was used by stems and leaves treatment of wheat field wheat seedlings.

Series [2] concerns Abutilontheophrasti Medicus. Put plainly: Inhibitory activity of clacyfos against 22 plants or weeds (B12). The following applies: in vivo. The source says: (§1) Combining the results of indoor and field tests of clacyfos, the herbicidal spectrum of clacyfos can be summarized as follows:
(§2) Echinochloa crusgalli Beava; Digitaria Sanguinalis scop; Alopecurus aequalis; Alopecurus japonicus steud; Setaria viridis; Cynodon dactylon; Eleusine indica; Leptochloa chinensis; Arthraxon hispidus; Eleusine indica; Imperata cyllndrlca; Cyperus difformis; Cyperus iria; Kyllinga brevifolia; Poa cnnua; Monochoria vaginalis; Potamogeton distinctus; Sagittaria pygmaea; Cyperus iria; Eleocharis yokoscensis; Digitaria adscendens; Equisetum arvenense.

Series [3] has as its system Alopecurus aequalis Sobol. The series is described as above. The following applies: in vivo.
Excerpt: as §1, §2

In series [4] the test system is Amaranthus rebroflexus L. The description is as above. The following applies: in vivo.
Excerpt: as §1, §2

For series [5], the system named is Amaranthus retroflexus. The series is described as above. The following applies: in vivo.
Excerpt: as §1, §2

Series [6] concerns Beta Vulgaris. Described as above. The settings on record: in vivo.
Excerpt: as §1, §2

Series [7] has as its system Brassica campestris. Described as above. The settings on record: in vivo.
Excerpt: as §1, §2

Series [8] deals with Brassica pekinensis. Described as above. The following applies: in vivo.
Excerpt: as §1, §2

Series [9] relates to Chenopodium album L. The description is as above. The following applies: in vivo.
Excerpt: as §1, §2

The subject of series [10] is Cyperus microiria. The series is described as above. The settings on record: in vivo.
Excerpt: as §1, §2

Series [11] has as its system Daucus carota L. The series is described as above. The following applies: in vivo.
Excerpt: as §1, §2

Series [12] has as its system Digitaria sanguinalis(L.) Scop. The series is described as above. The settings on record: in vivo.
Excerpt: as §1, §2

The test system of series [13] is Echinochloa crusgalli (L.). Described as above. The following applies: in vivo.
Excerpt: as §1, §2

Series [14] relates to Eclipta prostrata L. The description is as above. The settings on record: in vivo.
Excerpt: as §1, §2

Series [15] has as its system Eleusine indica (L.) Gaertn. The description is as above. The following applies: in vivo.
Excerpt: as §1, §2

In series [16] the test system is Galium aparine. The description is as above. The settings on record: in vivo.
Excerpt: as §1, §2

The test system of series [17] is Herba Cirsii Jeponici. The description is as above. The settings on record: in vivo.
Excerpt: as §1, §2

The subject of series [18] is Ipomoea heperacea. The series is described as above. The following applies: in vivo.
Excerpt: as §1, §2

Series [19] relates to Medicago saliva. The series is described as above. The following applies: in vivo.
Excerpt: as §1, §2

Series [20] relates to Poa annua L. The description is as above. The following applies: in vivo.
Excerpt: as §1, §2

Series [21] has as its system Rumex crispus L. The series is described as above. The following applies: in vivo.
Excerpt: as §1, §2

Series [22] has as its system Setaria viridis(L.) Beauv. Described as above. The settings on record: in vivo.
Excerpt: as §1, §2

Series [23] deals with Sinapis alba. The series is described as above. The following applies: in vivo.
Excerpt: as §1, §2

Series [24] has as its system Dicotyledonous and sedge weeds. Put plainly: Clacyfos weeding spectrum, indoor and field tests (B12). The following applies: recommended dosage of 450 g/hm^2. The series is classed as in vivo. An excerpt: Combining the results of indoor and field tests of clacyfos, the herbicidal spectrum of clacyfos can be summarized as follows: […]
Series [25] concerns monocotyledonous weeds. Described as above. The series is classed as in vivo. The following applies: 700 g/hm^2 to 800 g/hm^2.
Excerpt: as §1, §2

This note sets out measurements from US20210345607A1, “MICROEMULSION FORMULATION CONTAINING CLACYFOS HERBICIDE, PREPARATION METHOD THEREFOR AND USE THEREOF” (Central China Normal University, priority 2018, published 2021).

As to `Cc1cc(Cl)ccc1OCC(=O)O` [2-methyl-4-chlorophenoxyacetic acid], in series [1] (Henan, 32.5 g/mu), the “Increase in production compared with the control agent” value is “acid 32.5 g (5.51%)” and the phytotoxicity to wheat result was “a certain phytotoxicity”. Also, the “Increase in production compared with the control agent” value in [1] (Zaoyang, 40 g/mu) is “acid 40 g (20.91%)”.
Consider `COP(=O)(OC)C(C)OC(=O)COc1ccc(Cl)cc1Cl` (centres unmarked) [clacyfos, O, O-dimethyl-1-(2,4-dichlorophenoxyacetoxy) ethyl phosphonate], for which the Sensitivity result in series [2] was “Sensitive”; in series [3], “Resistance”; in series [10], “Sensitive”; in series [19], “Sensitive”; in series [21], “Sensitive”. In addition, the Visual activity in [2] turned out to be 85%; in [3] it was 0%; in [4], 100%; in series [5], 100%; in series [6], 95%; in series [7], 100%. Also, the Visual activity is given as 100% in [8]; 100% in series [9]; 90% in series [10]; 100% in [11]; 40% in [12]; 30% in [13]. Besides, the Visual activity is 100% in [14]; 100% in series [15]; 60% in series [16]; 100% in series [17]; 100% in series [18]; 90% in series [19]. Also, the Visual activity in [20] is recorded as 50%; in series [21], 80%; in series [22], 50%; in series [23] it was 95%. Besides, the “control of the dicotyledonous and sedge weeds listed” value in [24] is recorded as “can be effectively controlled”. The “control of the monocotyledonous weeds listed” value in series [25] is “can be controlled”.
